Test results taken from article PMC3933419, “Synthesis and Properties of a Selective Inhibitor of Homeodomain–Interacting Protein Kinase 2 (HIPK2)” (PLoS ONE, 2014).

Legend:
Assay in all cases: Kinase panel selectivity profiling
Type in all cases: biochemical
MKK2 = MKK2 (Homo sapiens, UniProt P36507); settings: TBID 1 μM, 125 kinase panel, read-out: % activity of the enzyme
From the text: (§1) The source of HIPK2 and of all of the other protein kinases used for specificity assays is as described elsewhere.
(§2) Conditions for the activity assays of all other protein kinases tested in selectivity experiments are as described or referenced in [9].

HIPK3 = HIPK3 (Homo sapiens, UniProt Q9H422); settings: TBID 1 μM, 125 kinase panel, read-out: % activity of the enzyme
From the text: as §1, §2

TAK1 = TAK1 (Homo sapiens, UniProt O43318); settings: TBID 1 μM, 125 kinase panel, read-out: % activity of the enzyme
From the text: as §1, §2

MLK1 = MLK1 (Homo sapiens, UniProt P80192); settings: TBID 1 μM, 125 kinase panel, read-out: % activity of the enzyme
From the text: as §1, §2

Src = Src (Homo sapiens, UniProt P12931); settings: TBID 1 μM, 125 kinase panel, read-out: % activity of the enzyme
From the text: as §1, §2

TSSK1 = TSSK1 (Homo sapiens, UniProt Q9BXA7); settings: TBID 1 μM, 125 kinase panel, read-out: % activity of the enzyme
Sequence of TSSK1 (Q9BXA7 whole entry): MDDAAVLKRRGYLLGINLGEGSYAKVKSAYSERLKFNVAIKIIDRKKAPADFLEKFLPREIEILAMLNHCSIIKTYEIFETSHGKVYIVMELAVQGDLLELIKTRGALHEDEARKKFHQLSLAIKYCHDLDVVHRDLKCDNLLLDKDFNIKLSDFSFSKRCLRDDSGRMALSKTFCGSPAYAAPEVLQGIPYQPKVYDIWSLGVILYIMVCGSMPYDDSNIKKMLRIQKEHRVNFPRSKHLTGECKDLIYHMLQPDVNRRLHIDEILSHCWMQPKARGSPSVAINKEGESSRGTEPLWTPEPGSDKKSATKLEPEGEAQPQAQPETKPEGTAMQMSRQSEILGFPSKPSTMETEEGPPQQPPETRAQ
From the text: as §1, §2

p38a MAPK = p38a MAPK (Homo sapiens, UniProt Q16539); settings: TBID 1 μM, 125 kinase panel, read-out: % activity of the enzyme
From the text: as §1, §2

NEK2a = NEK2a (Homo sapiens, UniProt P51955); settings: TBID 1 μM, 125 kinase panel, read-out: % activity of the enzyme
From the text: as §1, §2

JNK3 = JNK3 (Homo sapiens, UniProt P53779); settings: TBID 1 μM, 125 kinase panel, read-out: % activity of the enzyme
From the text: as §1, §2

p38b MAPK = p38b MAPK (Homo sapiens, UniProt Q15759); settings: TBID 1 μM, 125 kinase panel, read-out: % activity of the enzyme
Sequence of p38b MAPK (Q15759 whole entry): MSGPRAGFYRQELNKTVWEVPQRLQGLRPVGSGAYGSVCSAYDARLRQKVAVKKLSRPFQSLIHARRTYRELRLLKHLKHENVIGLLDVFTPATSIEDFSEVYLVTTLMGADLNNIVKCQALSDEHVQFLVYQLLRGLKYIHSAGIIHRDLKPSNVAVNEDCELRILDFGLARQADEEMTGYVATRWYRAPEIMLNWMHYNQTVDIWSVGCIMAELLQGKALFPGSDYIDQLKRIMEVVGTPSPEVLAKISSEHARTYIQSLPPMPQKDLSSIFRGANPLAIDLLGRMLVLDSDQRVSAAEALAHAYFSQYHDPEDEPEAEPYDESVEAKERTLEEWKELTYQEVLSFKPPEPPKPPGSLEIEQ
From the text: as §1, §2

EPH-B1 = EPH-B1 (Homo sapiens, UniProt P54762); settings: TBID 1 μM, 125 kinase panel, read-out: % activity of the enzyme
From the text: as §1, §2

EPH-B3 = EPH-B3 (Homo sapiens, UniProt P54753); settings: TBID 1 μM, 125 kinase panel, read-out: % activity of the enzyme
From the text: as §1, §2

PKCz = PKCz (Homo sapiens, UniProt Q05513); settings: TBID 1 μM, 125 kinase panel, read-out: % activity of the enzyme
From the text: as §1, §2

PKCγ = PKCγ (Homo sapiens, UniProt P05129); settings: TBID 1 μM, 125 kinase panel, read-out: % activity of the enzyme
From the text: as §1, §2

BRSK2 = BRSK2 (Homo sapiens, UniProt Q8IWQ3); settings: TBID 1 μM, 125 kinase panel, read-out: % activity of the enzyme
From the text: as §1, §2

SGK1 = SGK1 (Homo sapiens, UniProt O00141); settings: TBID 1 μM, 125 kinase panel, read-out: % activity of the enzyme
From the text: as §1, §2

HIPK1 = HIPK1 (Homo sapiens, UniProt Q86Z02); settings: TBID 1 μM, 125 kinase panel, read-out: % activity of the enzyme
From the text: as §1, §2

PAK2 = PAK2 (Homo sapiens, UniProt Q13177); settings: TBID 1 μM, 125 kinase panel, read-out: % activity of the enzyme
From the text: as §1, §2

TTK = TTK (Homo sapiens, UniProt P33981); settings: TBID 1 μM, 125 kinase panel, read-out: % activity of the enzyme
From the text: as §1, §2

SRPK1 = SRPK1 (Homo sapiens, UniProt Q96SB4); settings: TBID 1 μM, 125 kinase panel, read-out: % activity of the enzyme
From the text: as §1, §2

TESK1 = TESK1 (Homo sapiens, UniProt Q15569); settings: TBID 1 μM, 125 kinase panel, read-out: % activity of the enzyme
From the text: as §1, §2

MINK1 = MINK1 (Homo sapiens, UniProt Q8N4C8); settings: TBID 1 μM, 125 kinase panel, read-out: % activity of the enzyme
From the text: as §1, §2

PAK4 = PAK4 (Homo sapiens, UniProt O96013); settings: TBID 1 μM, 125 kinase panel, read-out: % activity of the enzyme
From the text: as §1, §2

DYRK2 = DYRK2 (Homo sapiens, UniProt Q92630); settings: TBID 1 μM, 125 kinase panel, read-out: % activity of the enzyme
From the text: as §1, §2

PKBa = PKBa (Homo sapiens, UniProt P31749); settings: TBID 1 μM, 125 kinase panel, read-out: % activity of the enzyme
From the text: as §1, §2

EIF2AK3 = EIF2AK3 (Homo sapiens, UniProt Q9NZJ5); settings: TBID 1 μM, 125 kinase panel, read-out: % activity of the enzyme
From the text: as §1, §2

TrkA = TrkA (Homo sapiens, UniProt P04629); settings: TBID 1 μM, 125 kinase panel, read-out: % activity of the enzyme
From the text: as §1, §2

MNK2 = MNK2 (Homo sapiens, UniProt Q9HBH9); settings: TBID 1 μM, 125 kinase panel, read-out: % activity of the enzyme
From the text: as §1, §2

ERK1 = ERK1 (Homo sapiens, UniProt P27361); settings: TBID 1 μM, 125 kinase panel, read-out: % activity of the enzyme
Sequence of ERK1 (P27361 whole entry): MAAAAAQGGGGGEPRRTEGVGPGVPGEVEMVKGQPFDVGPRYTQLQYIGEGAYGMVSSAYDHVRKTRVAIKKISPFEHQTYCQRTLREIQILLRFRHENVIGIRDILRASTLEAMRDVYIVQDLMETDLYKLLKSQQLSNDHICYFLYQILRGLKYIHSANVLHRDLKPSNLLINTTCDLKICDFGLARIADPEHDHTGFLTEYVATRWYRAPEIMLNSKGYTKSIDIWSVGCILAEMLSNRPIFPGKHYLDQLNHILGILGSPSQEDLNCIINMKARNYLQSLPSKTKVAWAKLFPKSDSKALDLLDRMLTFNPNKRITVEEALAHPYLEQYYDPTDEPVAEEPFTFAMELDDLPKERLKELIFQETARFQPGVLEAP
From the text: as §1, §2

FGF-R1 = FGF-R1 (Homo sapiens, UniProt P11362); settings: TBID 1 μM, 125 kinase panel, read-out: % activity of the enzyme
Sequence of FGF-R1 (P11362 22-822): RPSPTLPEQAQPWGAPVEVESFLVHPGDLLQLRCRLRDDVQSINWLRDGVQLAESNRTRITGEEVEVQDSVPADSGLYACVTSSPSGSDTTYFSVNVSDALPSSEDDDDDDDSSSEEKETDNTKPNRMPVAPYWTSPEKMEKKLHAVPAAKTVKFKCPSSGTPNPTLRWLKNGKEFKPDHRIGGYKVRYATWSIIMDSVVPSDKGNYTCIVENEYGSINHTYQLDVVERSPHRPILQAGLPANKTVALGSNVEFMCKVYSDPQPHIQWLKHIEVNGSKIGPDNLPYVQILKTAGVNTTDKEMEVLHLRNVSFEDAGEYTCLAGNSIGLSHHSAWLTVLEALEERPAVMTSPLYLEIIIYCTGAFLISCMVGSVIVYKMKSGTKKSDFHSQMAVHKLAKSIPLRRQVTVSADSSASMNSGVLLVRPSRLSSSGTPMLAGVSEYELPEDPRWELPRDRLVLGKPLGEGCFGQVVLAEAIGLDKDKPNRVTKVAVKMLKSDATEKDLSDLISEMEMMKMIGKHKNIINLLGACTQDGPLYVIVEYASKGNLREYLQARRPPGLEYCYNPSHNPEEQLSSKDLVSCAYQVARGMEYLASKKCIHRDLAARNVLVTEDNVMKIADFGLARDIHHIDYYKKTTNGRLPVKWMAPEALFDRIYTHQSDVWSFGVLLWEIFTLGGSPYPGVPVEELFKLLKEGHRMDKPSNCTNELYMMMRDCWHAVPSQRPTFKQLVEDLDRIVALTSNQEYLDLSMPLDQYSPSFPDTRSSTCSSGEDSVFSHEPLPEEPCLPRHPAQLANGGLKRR
From the text: as §1, §2

CK1 = CK1 (Homo sapiens, UniProt P48730); settings: TBID 1 μM, 125 kinase panel, read-out: % activity of the enzyme
From the text: as §1, §2

PAK5 = PAK5 (Homo sapiens, UniProt Q9P286); settings: TBID 1 μM, 125 kinase panel, read-out: % activity of the enzyme
From the text: as §1, §2

CAMK1 = CAMK1 (Homo sapiens, UniProt Q14012); settings: TBID 1 μM, 125 kinase panel, read-out: % activity of the enzyme
From the text: as §1, §2

TTBK1 = TTBK1 (Homo sapiens, UniProt Q5TCY1); settings: TBID 1 μM, 125 kinase panel, read-out: % activity of the enzyme
Sequence of TTBK1 (Q5TCY1 whole entry): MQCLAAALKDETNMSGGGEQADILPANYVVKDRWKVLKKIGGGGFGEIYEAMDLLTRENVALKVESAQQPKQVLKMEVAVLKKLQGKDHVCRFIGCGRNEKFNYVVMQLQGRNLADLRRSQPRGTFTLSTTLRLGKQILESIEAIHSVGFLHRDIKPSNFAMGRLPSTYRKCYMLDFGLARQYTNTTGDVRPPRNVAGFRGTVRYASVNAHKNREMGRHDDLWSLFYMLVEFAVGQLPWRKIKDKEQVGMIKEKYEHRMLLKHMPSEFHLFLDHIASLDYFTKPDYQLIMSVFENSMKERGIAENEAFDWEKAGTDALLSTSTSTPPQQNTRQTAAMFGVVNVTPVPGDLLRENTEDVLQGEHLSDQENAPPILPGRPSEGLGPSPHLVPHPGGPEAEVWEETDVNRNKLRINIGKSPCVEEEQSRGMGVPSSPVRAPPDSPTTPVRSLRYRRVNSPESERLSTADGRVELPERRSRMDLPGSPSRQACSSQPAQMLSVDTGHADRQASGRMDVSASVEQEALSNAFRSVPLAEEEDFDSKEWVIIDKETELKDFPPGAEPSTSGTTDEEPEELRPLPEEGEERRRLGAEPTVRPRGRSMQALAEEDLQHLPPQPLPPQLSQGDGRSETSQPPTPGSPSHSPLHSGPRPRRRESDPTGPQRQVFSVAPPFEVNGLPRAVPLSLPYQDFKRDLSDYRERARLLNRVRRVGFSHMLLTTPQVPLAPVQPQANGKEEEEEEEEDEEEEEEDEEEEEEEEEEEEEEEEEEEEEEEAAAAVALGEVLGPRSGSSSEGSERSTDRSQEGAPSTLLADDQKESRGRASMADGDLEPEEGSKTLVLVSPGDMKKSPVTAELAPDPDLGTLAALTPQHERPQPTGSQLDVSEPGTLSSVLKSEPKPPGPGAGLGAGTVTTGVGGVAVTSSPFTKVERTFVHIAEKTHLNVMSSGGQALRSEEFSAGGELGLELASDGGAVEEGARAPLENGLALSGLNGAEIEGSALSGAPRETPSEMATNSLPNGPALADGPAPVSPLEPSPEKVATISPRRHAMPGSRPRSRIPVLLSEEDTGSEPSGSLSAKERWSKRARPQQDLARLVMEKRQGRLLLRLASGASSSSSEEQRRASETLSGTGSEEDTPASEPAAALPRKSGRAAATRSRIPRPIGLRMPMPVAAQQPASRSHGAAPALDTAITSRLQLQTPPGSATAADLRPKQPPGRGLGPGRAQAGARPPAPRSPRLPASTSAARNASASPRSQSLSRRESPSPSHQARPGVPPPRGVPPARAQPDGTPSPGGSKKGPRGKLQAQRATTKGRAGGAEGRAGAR
From the text: as §1, §2

MPSK1 = MPSK1 (Homo sapiens, UniProt O75716); settings: TBID 1 μM, 125 kinase panel, read-out: % activity of the enzyme
From the text: as §1, §2

HIPK2 = target: T1, HIPK2 (Homo sapiens, UniProt Q9H2X6)
T1 construct: The source of HIPK2 and of all of the other protein kinases used for specificity assays is as described elsewhere
T1 sequence (Q9H2X6 whole entry): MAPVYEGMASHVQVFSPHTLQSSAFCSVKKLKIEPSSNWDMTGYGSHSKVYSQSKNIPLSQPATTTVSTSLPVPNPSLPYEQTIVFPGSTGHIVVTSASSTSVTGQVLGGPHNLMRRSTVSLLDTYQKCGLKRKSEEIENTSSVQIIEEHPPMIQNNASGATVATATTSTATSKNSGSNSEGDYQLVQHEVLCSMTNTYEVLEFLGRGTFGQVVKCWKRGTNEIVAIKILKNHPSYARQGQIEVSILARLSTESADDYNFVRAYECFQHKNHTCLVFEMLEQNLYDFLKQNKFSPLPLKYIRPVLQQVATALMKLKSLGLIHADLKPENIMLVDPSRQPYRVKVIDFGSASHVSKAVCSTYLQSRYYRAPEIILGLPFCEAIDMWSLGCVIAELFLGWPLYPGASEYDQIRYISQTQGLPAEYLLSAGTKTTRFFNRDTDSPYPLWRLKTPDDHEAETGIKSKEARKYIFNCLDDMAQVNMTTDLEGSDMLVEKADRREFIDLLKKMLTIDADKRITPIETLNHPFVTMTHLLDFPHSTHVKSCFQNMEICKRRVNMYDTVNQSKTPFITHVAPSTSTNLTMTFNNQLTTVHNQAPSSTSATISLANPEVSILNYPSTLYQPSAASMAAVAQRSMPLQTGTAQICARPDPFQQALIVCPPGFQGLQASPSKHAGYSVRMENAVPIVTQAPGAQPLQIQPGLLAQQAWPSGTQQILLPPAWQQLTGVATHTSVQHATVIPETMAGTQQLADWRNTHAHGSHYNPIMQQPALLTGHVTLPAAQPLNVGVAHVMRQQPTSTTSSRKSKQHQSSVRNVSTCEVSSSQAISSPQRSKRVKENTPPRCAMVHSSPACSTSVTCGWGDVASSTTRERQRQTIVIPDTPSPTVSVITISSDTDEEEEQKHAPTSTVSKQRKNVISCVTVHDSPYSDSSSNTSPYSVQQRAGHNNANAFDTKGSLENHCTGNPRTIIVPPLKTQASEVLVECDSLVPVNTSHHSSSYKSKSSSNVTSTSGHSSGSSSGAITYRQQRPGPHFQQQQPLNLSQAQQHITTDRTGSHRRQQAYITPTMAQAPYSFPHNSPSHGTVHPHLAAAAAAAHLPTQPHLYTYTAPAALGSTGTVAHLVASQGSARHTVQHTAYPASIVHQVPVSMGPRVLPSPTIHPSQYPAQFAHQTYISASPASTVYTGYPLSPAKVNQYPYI
From the text: as §1, §2

CDK2-Cyclin A = CDK2-Cyclin A (Homo sapiens, UniProt P24941); settings: TBID 1 μM, 125 kinase panel, read-out: % activity of the enzyme
From the text: as §1, §2

PHK = PHK (Homo sapiens, UniProt Q16816); settings: TBID 1 μM, 125 kinase panel, read-out: % activity of the enzyme
Sequence of PHK (Q16816 whole entry): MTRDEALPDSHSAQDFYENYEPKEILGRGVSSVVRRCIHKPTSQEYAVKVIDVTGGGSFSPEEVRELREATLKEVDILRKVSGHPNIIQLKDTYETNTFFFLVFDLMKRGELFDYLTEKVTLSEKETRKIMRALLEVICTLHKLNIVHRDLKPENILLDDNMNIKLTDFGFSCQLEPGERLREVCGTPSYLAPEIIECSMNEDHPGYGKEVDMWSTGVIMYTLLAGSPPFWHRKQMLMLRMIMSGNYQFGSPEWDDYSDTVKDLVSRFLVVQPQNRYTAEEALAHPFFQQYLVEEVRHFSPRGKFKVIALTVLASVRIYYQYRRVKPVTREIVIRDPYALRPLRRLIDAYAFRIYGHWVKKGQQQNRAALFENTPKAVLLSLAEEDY
From the text: as §1, §2

CLK2 = CLK2 (Homo sapiens, UniProt P49760); settings: TBID 1 μM, 125 kinase panel, read-out: % activity of the enzyme
From the text: as §1, §2

MELK = MELK (Homo sapiens, UniProt Q14680); settings: TBID 1 μM, 125 kinase panel, read-out: % activity of the enzyme
From the text: as §1, §2

TIE2 = TIE2 (Homo sapiens, UniProt Q02763); settings: TBID 1 μM, 125 kinase panel, read-out: % activity of the enzyme
From the text: as §1, §2

EPH-B2 = EPH-B2 (Homo sapiens, UniProt P29323); settings: TBID 1 μM, 125 kinase panel, read-out: % activity of the enzyme
From the text: as §1, §2

Structure (SMILES): O=C1c2c(Br)c(Br)c(Br)c(Br)c2C(=O)N1c1ncc[nH]1 [TBID, 4,5,6,7-Tetrabromo-2-(1H-imidazol-2-yl)isoindoline-1,3-dione]
- activity at 1 µM (MKK2): 96%
- activity at 1 µM (HIPK3): 53%
- activity at 1 µM (TAK1): 78%
- activity at 1 µM (MLK1): 83%
- activity at 1 µM (Src): 83%
- activity at 1 µM (TSSK1): 109%
- activity at 1 µM (p38a MAPK): 88%
- activity at 1 µM (NEK2a): 89%
- activity at 1 µM (JNK3): 101%
- activity at 1 µM (p38b MAPK): 111%
- activity at 1 µM (EPH-B1): 96%
- activity at 1 µM (EPH-B3): 103%
- activity at 1 µM (PKCz): 104%
- activity at 1 µM (PKCγ): 117%
- activity at 1 µM (BRSK2): 99%
- activity at 1 µM (SGK1): 98%
- activity at 1 µM (HIPK1): 39%
- activity at 1 µM (PAK2): 97%
- activity at 1 µM (TTK): 92%
- activity at 1 µM (SRPK1): 77%
- activity at 1 µM (TESK1): 103%
- activity at 1 µM (MINK1): 91%
- activity at 1 µM (PAK4): 99%
- activity at 1 µM (DYRK2): 94%
- activity at 1 µM (PKBa): 104%
- activity at 1 µM (EIF2AK3): 107%
- activity at 1 µM (TrkA): 100%
- activity at 1 µM (MNK2): 113%
- activity at 1 µM (ERK1): 98%
- activity at 1 µM (FGF-R1): 104%
- activity at 1 µM (CK1): 105%
- activity at 1 µM (PAK5): 105%
- activity at 1 µM (CAMK1): 78%
- activity at 1 µM (TTBK1): 113%
- activity at 1 µM (MPSK1): 93%
- residual activity (HIPK2; 10 µM TBID, panel of 76 protein kinases): entirely suppressed
- activity at 1 µM (HIPK2; TBID 1 μM, 125 kinase panel, read-out: % activity of the enzyme): 31%
- activity at 1 µM (CDK2-Cyclin A): 98%
- activity at 1 µM (PHK): 116%
- activity at 1 µM (CLK2): 101%
- activity at 1 µM (MELK): 110%
- activity at 1 µM (TIE2): 115%
- activity at 1 µM (EPH-B2): 108%
